Measurements published in patent publication US20220389389A1, “METHODS AND A KIT TO REPROGRAM SOMATIC CELLS” (Novoxyne LLC, priority 2019, published 2022).

How the values were obtained:
[1] = test system: PIFs; conditions: in vitro culture; cited from earlier work
[2] = cited from earlier work
[3] = test system: iPSC generation from fibroblasts; conditions: without c-Myc and Klf4; cited from earlier work
[4] = test system: spleen cells; test: MSAIC inhibition assay with GsMTX4, PI gene messages by real time PCR; type: cell-based, mouse
Protocol: (§1) C57BL/6 male mice (4-6 weeks old) were purchased from Jackson Laboratory. Bone marrow cells and spleen cells were obtained from 4-6-week-old male C57BL/6 mice. Cells in single cell suspension were red cell-depleted before use. Bone marrow stromal cells were cultured and passaged in T75 culture flask as it was described [Torino et al., Bio-protocol 4: e1031 (2014)]. The embryonic fibroblast was prepared from 13-day fetus of C57BL/6 as described previously [Qiu et al., Bio-protocol 6: e1859 (2016)]. Cells used for the reprogramming were those cultured for 2 to 4 passage periods.
Cells were cultured in 6 well plates (10^7 cells/well) in triplicate per group. GsMTX4 dissolved in PBS was added to the concentration 5 μM in the experimental group. Sixteen hours later, cells were harvested by scraper for spleen cells and bone marrow cells, pelleted for total RNA-extraction with RNeasy (Qiagen) or Trizol (Invitrogen). For EF cells and BM stromal cells, cell culture medium was drained and directly resuspended to the cell lysis buffer in the culture wells. Extracted RNAs were subjected to cDNA synthesis (Applied Bioscience) and analyzed for the messages specific for mouse PI genes and control genes by real time PCR thereto cycler (Bio-Rad, CFX384). Primers used were: Oct4 (5′: […] (SEQ ID NO:5), 3′: […] (SEQ ID NO:6), Sox2 (5′: […] (SEQ ID NO:7), 3′: […] (SEQ ID NO:8), Nanog (5′: […] ([…]), 3′: […] (SEQ ID NO:10), CFBP/α (5′: […] (SEQ ID NO:11), 3′: […] (SEQ ID NO:12), c-Myc (5′: […] (SEQ ID NO:13), 3′: TTATGCACCAGAGTTTCG (SEQ ID NO:14), RUNX1 (5′: […] (SEQ ID NO:15), 3′: […] (SEQ ID NO:16), PU1 (5′: […] (SEQ ID NO:17), 3′: […] (SEQ ID NO:18), IRF8 (5′: […] (SEQ ID NO:19), 3′: […] (SEQ ID NO:20), FOXP1 (5′: […] (SEQ ID NO:21), 3′: […] (SEQ ID NO:22), KLF4 (5′: […] (SEQ ID NO:23), 3′: […] (SEQ ID NO:24), Actin (5′: […] (SEQ ID NO:25), 3′: […] (SEQ ID NO:26), GAPDH 5′: […] (SEQ ID NO:27), 3′: […] (SEQ ID NO:28). […]
Spleen cells were 37° C.-treated with MβCD before the in vitro culture with GsMTX4 as described in FIG. 1. ND: not detected.

[5] = test system: bone marrow stroma cell line; test: as above; type: cell-based, mouse; conditions: GsMTX4, O/N culture
Protocol: as §1
(§2) Cells were cultured in 6 well plates (10^7 cells/well) in triplicate per group. GsMTX4 dissolved in PBS was added to the concentration 5 μM in the experimental group. Sixteen hours later, cells were harvested by scraper for spleen cells and bone marrow cells, pelleted for total RNA-extraction with RNeasy (Qiagen) or Trizol (Invitrogen). For EF cells and BM stromal cells, cell culture medium was drained and directly resuspended to the cell lysis buffer in the culture wells. Extracted RNAs were subjected to cDNA synthesis (Applied Bioscience) and analyzed for the messages specific for mouse PI genes and control genes by real time PCR thereto cycler (Bio-Rad, CFX384). […]

[6] = test system: bone marrow cells; test: MSAIC inhibition assay with GsMTX4 / matrix stiffness culture, PI gene messages by real time PCR; type: cell-based, mouse; conditions: 5 μM GsMTX4, 16 hours
Protocol: as §1
Cells were cultured in 6 well plates (10^7 cells/well) in triplicate per group. GsMTX4 dissolved in PBS was added to the concentration 5 μM in the experimental group. Sixteen hours later, cells were harvested by scraper for spleen cells and bone marrow cells, pelleted for total RNA-extraction with RNeasy (Qiagen) or Trizol (Invitrogen). For EF cells and BM stromal cells, cell culture medium was drained and directly resuspended to the cell lysis buffer in the culture wells. Extracted RNAs were subjected to cDNA synthesis (Applied Bioscience) and analyzed for the messages specific for mouse PI genes and control genes by real time PCR thereto cycler (Bio-Rad, CFX384). Primers used were: Oct4 (5′: […] (SEQ ID NO:5), 3′: […] (SEQ ID NO:6), Sox2 (5′: […] (SEQ ID NO:7), 3′: […] (SEQ ID NO:8), Nanog (5′: […] ([…]), 3′: […] (SEQ ID NO:10), CFBP/α (5′: […] (SEQ ID NO:11), 3′: […] (SEQ ID NO:12), c-Myc (5′: […] (SEQ ID NO:13), 3′: TTATGCACCAGAGTTTCG (SEQ ID NO:14), RUNX1 (5′: […] (SEQ ID NO:15), 3′: […] (SEQ ID NO:16), PU1 (5′: […] (SEQ ID NO:17), 3′: […] (SEQ ID NO:18), IRF8 (5′: […] (SEQ ID NO:19), 3′: […] (SEQ ID NO:20), FOXP1 (5′: […] (SEQ ID NO:21), 3′: […] (SEQ ID NO:22), KLF4 (5′: […] (SEQ ID NO:23), 3′: […] (SEQ ID NO:24), Actin (5′: […] (SEQ ID NO:25), 3′: […] (SEQ ID NO:26), GAPDH 5′: […] (SEQ ID NO:27), 3′: […] (SEQ ID NO:28). The value of each Cq (Ct) were applied to the formula by which the message level of each specific gene (shown by the index value) was estimated in comparison to that of Actin or GAPDH housekeeping genes.
(§3) Tissue culture plates with defined elasticity surface (0.2, 4, 50 kpa) were purchased from Matrigen. To cast polyacrylamide gel in petri-dishes, 3.5 cm petri-dish was used. Each dish was loaded with 330 μL of polyacrylamide gel cocktail and promptly the size-matched drop lid (polypropylene) was placed on the top (FIG. 30). Three different elasticities of the polyacrylamide gel were prepared in the study. The ratio of [acrylamide (40%): bis-acrylamide (2%): water] was determined according from the published data [Tse and Engler, Curr. Protoc. Cell Biol. Chapt. 10 Unit 10.16 (2010)]. Those were (75:112.5:812.5) for 1.7 kpa, (100:150:750) for 3.2 kpa and (250:30:720) for 7.4 kpa. The slice of the 50 ml conical centrifuge tube caps were used for the drop caps (arrow-pointed in FIG. 30).
In experiments, mouse bone marrow cells were in vitro 37° C. cultured 16 hours in the presence of 5 μM GsMTX4. Cells were then assayed for the PI genes' messages as listed in the left of the FIG. 1. […] The presence of GsMTX4 in the culture was expected to prevent cells from sensing the strong stretch stress by MSAICs. Strikingly, the cells cultured in the presence of GsMTX4 expressed greater than 100 times of Oct4 message compared with the control cells (FIG. 1). […] 10(1): e1004079 (2014); North et al., Stem Cells. 22:158 (2004)].
The fresh bone marrow cells were cultured for 16 hours in 6 well plates with GsMTX4 (5 μM) in DMEM supplemented with 10% FBS. The messages specific for the genes listed in the left were real time PCR-characterized and presented as the relative index in comparison with the value of β-actin message. […]

[7] = test system: EF cells; test: MSAIC inhibition assay with GsMTX4, PI gene messages by real time PCR; type: cell-based, mouse
Protocol: as §1, §2

[8] = test system: EF cells; test: Reprogramming and differentiation culture of EF cells, microscopy and staining; type: cell-based, mouse
Protocol: as §3
Ninety minutes later drop lids were carefully removed and the gels in the dishes were washed 5 times with 3 ml of sterile water. Each aspiration of the water from the dish was gently performed with 1 ml micro pipettor. During the washing, casted acrylamide gel come off the bottom. […]
Cells were suspended in DMEM supplemented with 5 mM MβCD at the concentration of 2×10^6/ml in 15 ml centrifuge tube. […] Cells on the gel and on the dish-bottom surface were monitored daily and the remarkable phenotype cells were recorded with EVOS cell monitoring system (Thermofisher). […]

[9] = test system: EF cells; test: RT-PCR assay for the expression of PI genes in the reprogramming cultures of EF cells; type: cell-based, mouse
Protocol: Cells were suspended in DMEM supplemented with 5 mM MβCD at the concentration of 2×10^6/ml in 15 ml centrifuge tube. Cell suspension was incubated for 30 min at 37° C. with every 5 min gentle agitations. Washed once with 37° C. warmed DMEM/F12 and resuspended in small volume complete medium (30 μl/2×10^6 cells) [DMEM/F12 (Corning), 20% knockout serum replacement (Gibco), 1% nonessential amino acids (Gibco), 5×10^−5M 2-Mercaptethanol]. To initiate reprogramming culture on hydrogel, petri dish was added with 2.5 ml complete medium, then 30 μl of cell suspension was loaded on the hydrogel. Multiple dishes were housed in a 15 cm diameter petri dish with a water filled un-lid 6 cm petri dish. Cells on the gel and on the dish-bottom surface were monitored daily and the remarkable phenotype cells were recorded with EVOS cell monitoring system (Thermofisher). Various phenotype cells were characterized by the assays for the markers specific for the cell lineages (e.g., Oil red 0 for the adipocytes and alizarin for calcium deposited cells) as commonly available methods.
Cells derived from the MβCD-treated and hydrogel-exposed culture in petri dish were subjected to the extraction of total RNA by Trizol. cDNAs were prepared as described above and the regular PCR was performed (35 cycle) using PCR master mix (Biotool) and the primers listed above for the real time PCR assays. The PCR products were resolved using 1.5% agarose gel, Ethidium Bromide-stained and the results were acquired by Gel Documentation system (Bio-Rad).
EF cells were MβCD-treated and cultured in the hydrogel-casted petri dishes for 7 days before RNA extraction. The stiffness of the hydrogel was listed on the top of each lane. Total RNAs from spheres and dish-adhered cells were analyzed for the expression of the PI genes by RT-PCR. PCR-amplified fragments were dissolved by 1.5% agarose gel and stained by Ethidium Bromide. […]
EF cells were MβCD-treated and cultured in the petri dishes. […] The message for each PI gene was analyzed as described in FIG. 1 and shown in B.

[10] = test system: Human PBMC; test: Nuclear reprogramming of human peripheral blood mononuclear cells; type: cell-based; conditions: 5 mM MβCD twice 20 min, then soft polyacrylamide gel culture
From the text: Human PBMC is an attractive source of somatic cells for reprogramming to stem cells by the available iPSC technology. The sampling of the peripheral blood is a common practice in the medicine and possible to obtain at the individual specific fashion. The purification of the PBMC is also a regular method by Ficol gradient centrifugation. […] 27, 10-(2018), U.S. Pat. No. 9,447,382B2]. To investigate if the methods of the current invention can apply to reprogram human PBMC into the stem cell-like cells, and also differentiate into the de novo phenotypes in vitro, experiments were conducted in which cell were treated with MβCD and then cultured on the soft polyacrylamide gel as described infula.
Human peripheral blood was corrected into the heparinized tube from left forearm vein. The blood mononuclear cells were separated using the Ficoll-Hypaque technique (density, 1.077; Pharmacia Biotech, Uppsala, Sweden). Cells were twice repeatedly 37° C. incubated for 20 min with 5 mM MβCD in DMEM, pelleted by centrifugation at 900 g at room temperature. Washed once with 37° C. warmed DMEM/F12 and resuspended in small volume complete medium (30 μl/2×10^6 cells) [DMEM/F12 (Corning), 20% knockout serum replacement (Gibco), 1% nonessential amino acids (Gibco), 5×10^−5M 2-Mercaptethanol]. Cells in the culture petri-dishes were monitored daily by microscopy and novel phenotype cells were recorded. […]

Molecule: C[S+](C)[O-] [DMSO]
- expression of PIFs [1]: repressed

Molecule: Cc1c(C(=O)Nc2cccc(C(F)(F)F)c2)cc(-c2ccccc2)n1CCCN1CCOCC1 [HC 067047]
- solubility [2]: only soluble in DMSO or alcohols

Molecule: CCCC(CCC)C(=O)O [Valproic acid]
- increase of reprogramming efficiency over the four transcription factor method [3]: 100 fold

Molecule: GsMTX4
- PI genes expression ([4]; GsMTX4, 16 hours): consistently repressed
- PI genes expression ([4]; GsMTX4, day 3): activation of the PI genes was significantly observed
- PI genes expression [5]: resembled to that of fresh bone marrow cells
- solubility [2]: water soluble
- C/EBPα expression [6]: activated prominently
- FOXP1 (non-PI gene) expression change [6]: the expression change was small
- IRF8 (non-PI gene) expression change [6]: the expression change was small
- RUNX1 expression [6]: activated prominently
- Sox2 expression [6]: activated prominently
- Oct4 message compared with the control cells ([6]; 37° C., polystyrene surface): greater than 100 times
- PI genes expression ([7]; GsMTX4, 16 hours): responded like that observed in the study of fresh spleen cells
- PI genes expression ([7]; GsMTX4, day 3): found activated

Molecule: methyl-β-cyclodextrin [MβCD]
- PI genes expression in response to GsMTX4 after MβCD treatment ([4]; 37° C. MβCD treatment, then GsMTX4 O/N culture): activation of PI genes
- efficiency of generating stem cell-like / differentiated cells ([8]; EF cells): greater efficiency than that of the hydrogel only
- sphere formation on hydrogel ([8]; MβCD, then low pascal hydrogels (1.7, 3.2, 7.4 kpa), O/N culture): formation of various size spheres were observed
- time to detection of un-spliced PI gene messages after cholesterol depletion ([9]; MβCD-treated EF cells attached to dish bottom): ≤ 24 h
- presence of spliced PI gene messages ([9]; MβCD-treated EF cells attached to dish bottom, day 1, 4, 7): present only in the cells cultured 7 days
- messages for Oct4, Nanog, and Sox2 at predicted sizes in bottom-adhered cells ([9]; MβCD-treated, hydrogel-casted petri dishes, 7 days): significant messages
- appearance of novel-phenotype cells [10]: observed novel-phenotype cells
